In US10760087B2, “Compositions, methods, and plant genes for the improved production of fermentable sugars for biofuel production” (priority 2012, dated 2020):
Where two headings read alike, the source gives them in different places.

How the values were obtained:
Format in all cases: in vivo
[1] = tested on: Arabidopsis wild-type and CesA1/CesA3/CesA6 mutant alleles; experiment: Root length of Arabidopsis wild-type and CESA mutant lines on cellulose biosynthetic inhibitors (CBI resistance); conditions: Arabidopsis thaliana
Procedure: Further genetic screens aimed at identifying resistance to cellulose biosynthetic inhibitors (CBIs) were also conducted. The aim of conducting resistance screens can be to identify potential inhibitor targets. In the case of some CBIs, like isoxaben, resistance screens have been carried out using high concentrations of the inhibitor with the aim of identifying the target protein. Indeed, high resistance to isoxaben is only possible if certain CELLULOSE SYNTHASE (CESA) genes are altered by mutation. An unforeseen consequence of some of the resistance alleles has been to reduce overall cellulose crystallinity, which ultimately leads to overall improved saccharification of starting cell wall material. With this information as a starting point, the inventors sought to identify novel CESA alleles by conducting additional resistance screens, but utilizing much lower CBI concentrations than in the original screens.
EMS mutagenized plants (M2) were screened on 20 nM of two different CBIs, isoxaben or flupoxam. […] In total, 2 million M2 seeds were screened and 12 new CESA alleles were isolated, 3 in CESA1, 8 in CESA3 and 1 in CESA6. All of the new mutant alleles led to single amino acid substitutions, which could not have been predicted a priori.

Zea mays (maize) = experiment: Sugar release by 0.2 M H2SO4 acid hydrolysis of NPA-treated maize; conditions: two maize cultivars, 120 μM NPA for 2 weeks
Source text: (Results are averages ±s.d. (n=6-9).)
(§1) The connection between auxin transport and increased sugar release was further probed using a specific inhibitor of auxin transport N-1-naphthylphthalamic acid (NPA). […] More importantly, the ability to chemically perturb auxin transport allowed the expansion of the analysis to Zea mays (maize). […] Moreover, it appears that genes and processes identified using Arabidopsis can be transferred to maize and potentially other monocot species dedicated to biofuel production.
Polar auxin transport inhibition was carried out as described by Wu & McSteen, 2007. The two maize cultivars, Syngenta hybrid N39-Q1 and Tuxedo Sweet Corn, were grown in a greenhouse at 24° C. with a 12 hour day/night cycle. The plants were grown four weeks before NPA treatment followed by a two week watering regime using 120 μM NPA (ChemService, West Chester, Pa., USA) or DMSO alone (solvent) applied every two days in a volume of 150 mL for each pot. Plants were fertilized once a week with 20-20-20 fertilizer. After 2 weeks of treatment, whole plants were collected and de-stained in chloroform:methanol (1:1 v/v). Acid hydrolysis was performed as described previously.

[2] = tested on: wild type Arabidopsis seedlings; experiment: Sugar release by 0.2 M H2SO4 acid hydrolysis of NPA-treated Arabidopsis seedlings; conditions: wild type (Col-0) 28 day-old seedlings on MS media with 1 or 5 μM NPA
Source text: FIGS. 4A-4D illustrate the analysis of pin-shaped inflorescence mutants and NPA treatment, resulting in increased saccharification in Arabidopsis and maize. […] (Results are averages ±s.d. (n=4). *, P<0.001 and **, P<0.005 using Student's t-test; all experiments were repeated two times with similar results.)
as §1
The M2 generation of EMS-mutagenized Arabidopsis (Col-0) seeds were chilled for 4 days and sowed onto 0.5× MS plates placed vertically under continuous light conditions at room temperature. […] The samples were incubated at 100° C. for 5 minutes, cooled and the absorbance was read at 660 nm. Approximately 22,000 seedlings from 32 pools were screened from which 63 wall hydrolysis sensitive (whs) mutants were identified as having an absorbance reading greater than 2 standard deviations from wild type (FIG. 5). whs mutants were retested in the M3 generation.

With NC(=O)c1nc(-c2ccccc2)n(-c2ccc(Cl)c(COCC(F)(F)C(F)(F)F)c2)n1 [Flupoxam, flupoxam] the IC50 ([1]; read-out: Concentration at which root length is 50% of wt, allele fpx 1-1, Col-o, CesA3 S(1040)L) was 500 nM, the IC50 ([1]; read-out: Concentration at which root length is 50% of wt, allele fpx 1-2, Ler, CesA3 S(1037)F) was greater than 1000 nM and the IC50 ([1]; read-out: Concentration at which root length is 50% of wt, allele fpx 1-3, Ler, CesA3 S(983)F) was 100 nM. For the same compound, the IC50 ([1]; read-out: Concentration at which root length is 50% of wt, allele fpx2-1, Ler, CesA1 G(1013)R) was greater than 1000 nM, the IC50 ([1]; read-out: Concentration at which root length is 50% of wt, allele fpx 2-2, Ler, CesA1 P(1010)L) was 100 to 500 nM and the IC50 ([1]; read-out: Concentration at which root length is 50% of wt, allele fpx 2-3, Ler, CesA1 G(1009)D) was 1000 nM.
Compound CCC(C)(CC)c1cc(NC(=O)c2c(OC)cccc2OC)on1 [Isoxaben, isoxaben] has an IC50 ([1]; read-out: Concentration at which root length is 50% of wt, allele ixr1-1 (published), Col-0, CesA3 G(998)D) greater than 1000 nM, an IC50 ([1]; read-out: Concentration at which root length is 50% of wt, allele ixr1-2 (published), Col-0, CesA3 T(942)I) of 500 nM and an IC50 ([1]; read-out: Concentration at which root length is 50% of wt, allele ixr1-3, Ler, CesA3 G(998)S) of 100 nM. It also gave an IC50 ([1]; read-out: Concentration at which root length is 50% of wt, allele ixr1-4, Ler, CesA3 R(806)K) of 50 nM, an IC50 ([1]; read-out: Concentration at which root length is 50% of wt, allele ixr1-5, Ler, CesA3 L(797)F) of 10 nM and an IC50 ([1]; read-out: Concentration at which root length is 50% of wt, allele ixr1-6, Ler, CesA3 S(377)F) of 50 nM. For the same compound, the IC50 ([1]; read-out: Concentration at which root length is 50% of wt, allele ixr1-7, Ler, CesA3 R(276)H) was 50 nM, the IC50 ([1]; read-out: Concentration at which root length is 50% of wt, allele ixr 2-1 (published), Col-0, CesA6 R(1064)W) was 50 nM and the IC50 ([1]; read-out: Concentration at which root length is 50% of wt, allele ixr 2-2, Ler, CesA6 S(1002)F) was 10 nM.
For O=C(O)c1ccccc1C(=O)Nc1cccc2ccccc12 [NPA, N-1-naphthylphthalamic acid], the “cell wall accessibility (sugar release)” value (Zea mays (maize)) was “significant increase in cell wall accessibility” and the “increase in the release of sugars relative to untreated plants” value [2] was 1.5 to 2 fold.
